The values that follow come from patent US12227520B2 (priority 2019, dated 2025).

One series concerns uninfected MT-4 cells. As to the kind of experiment: Cytotoxicity assay in MT-4 cells. It is filed as cell-based, human. As to conditions: uninfected MT-4 cells, 5 days incubation. An outline of the steps:
(§1)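 Infected MT-4 cells (HIV-1 IIIB, fresh 1:250 dilution of concentrated stock) or mock-infected cells exposed to compounds for 5 days at 37 °C. Viability by CellTiter-Glo luminescence; 5 μM AZT positive control, no-drug negative control. Uninfected cells used for cytotoxicity, with 10 μM puromycin as base-level cytotoxicity control.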

A further series has as its system HIV-1 (IIIB). As to the kind of experiment: Antiviral assay in MT-4 cells (HIV MT-4 antiviral assay). It counts as cell-based. The following applies: HIV-1 (IIIB) in MT-4 cells, 5 days incubation. In outline:
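MT-4 cells infected with HIV-1 IIIB (1:250 diluted stock) and exposed to 1:3 serially diluted compound in RPMI with 10% FBS. Viability read by CellTiter-Glo luminescence after 5 days at 37° C; mock-infected cells and 5 μM AZT as controls.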

Series [1] in a line: Cytotoxicity assay in MT-4 cells. As to conditions: human, uninfected MT-4 cells, 5 days incubation; read-out: CC50. It counts as cell-based, human. In outline: as §1
In another series the test system is pLai RLuc reporter virus. As to the kind of experiment: microbe, parasite or virus in culture. It is filed as cell-based, HIV. The following applies: Human immunodeficiency virus 1, 72 h. In outline: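 MT-4 cells pre-infected 2 h at 37 °C with pLai RLuc virus, then exposed to 1:3 serial dilutions of compound in RPMI/10% FBS with or without 50% human serum for 72 h at 37 °C. Renilla luminescence read-out; serum shift = EC50(HS/CCM)/EC50(CCM).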

Where [2] appears, read: Human immunodeficiency virus 1, IIIB, MT4, 120 h, read-out: EC50.
[3] abbreviates: read-out: Antiviral Serum Shift RLuc 50% HS, HS/CCM (RPMI media, 10% FBS, 50% HS, 1% P/S), 72-h incubation.
Setting [4] is: read-out: Antiviral Serum Shift RLuc CCM, CCM (RPMI media, 10% FBS, 1% P/S), 72-h incubation.
[5] abbreviates: Human immunodeficiency virus 1, IIIB, MT4, 120 h.

Read-outs that look alike come from different tables or passages of the source.

Regarding `O=C(NCc1c(F)cc(F)cc1F)c1cn2c(c(O)c1=O)C(=O)N1CC2CCc2ccccc21` (single isomer, unassigned) [Example 38-2], the CC50 (as a rule, the concentration at which the toxic effect on the cells reaches its halfway point) with uninfected MT-4 cells is 12800 nM. Besides, the EC50 in the series with HIV-1 (IIIB) (read-out: EC50) was determined as 0.93 nM.

The molecule `O=C(NCc1ccc(F)cc1F)c1cn2c(c(O)c1=O)C(=O)N1CC2CCc2cc(F)c(F)cc21` (single isomer, unassigned) [Example 50-2] registered a half-maximal cytotoxic concentration (CC50) in the series on uninfected MT-4 cells of 32300 nM. Moreover, in the series on HIV-1 (IIIB), the EC50 worked out at 32.5 nM.

Consider `CC[C@]12CCCCN(C1)C(=O)c1c(O)c(=O)c(C(=O)NCc3ccc(F)cc3F)cn12` [Example 134-1, (7S)—N-(2,4-difluorobenzyl)-7-ethyl-12-hydroxy-1,11-dioxo-1,4,5,6,7,11-hexahydro-3H-27-methanopyrido[1,2-a][1,4]diazonine-10-carboxamide], for which half-maximal cytotoxicity with uninfected MT-4 cells (CC50) was put at 16200 nM. The EC50 in the series with HIV-1 (IIIB) (read-out: EC50) is 3.29 nM.

Turning to `C[C@@H]1CC[C@H](C)N2C[C@H]1n1cc(C(=O)NCc3ccc(F)cc3F)c(=O)c(O)c1C2=O` [Example 175, (3S,6R,7S)—N-(2,4-difluorobenzyl)-12-hydroxy-3,6-dimethyl-1,11-dioxo-1,4,5,6,7,11-hexahydro-3H-2,7-methanopyrido[1,2-a][1,4]diazonine-10-carboxamide], the CC50 at 5 days in series [1] came out at 7740 nM. In addition, the EC50 with HIV-1 (IIIB) (setting [2]) was determined as 1.29 nM; in the series on pLai RLuc reporter virus (setting [3]), 20.9 nM; with pLai RLuc reporter virus (setting [4]), 0.412 nM.

Regarding `C[C@@H]1C=C[C@H](C)N2C[C@H]1n1cc(C(=O)NCc3c(F)cc(F)cc3F)c(=O)c(O)c1C2=O` [Example 176, (3S,6R,7S)-12-hydroxy-3,6-dimethyl-1,11-dioxo-N-(2,4,6-trifluorobenzyl)-1,6,7,11-tetrahydro-3H-2,7-methanopyrido[1,2-a][1,4]diazonine-10-carboxamide], the CC50 at 5 days in series [1] was determined as 7770 nM. The values for the EC50 in the series with HIV-1 (IIIB) (setting [2]), with pLai RLuc reporter virus (setting [3]) and in the series with pLai RLuc reporter virus (setting [4]) were 0.829 nM, 16.7 nM and 0.263 nM, respectively.

Take `C[C@@H]1C=C[C@H](C)N2C[C@H]1n1cc(C(=O)NCc3ccc(F)cc3F)c(=O)c(O)c1C2=O` [Example 177, (3S,6R,7S)—N-(2,4-difluorobenzyl)-12-hydroxy-3,6-dimethyl-1,11-dioxo-1,6,7,11-tetrahydro-3H-2,7-methanopyrido[1,2-a][1,4]diazonine-10-carboxamide]: the CC50 at 5 days in series [1] turned out to be 8540 nM. For the same molecule, the EC50 turned out to be 0.915 nM with HIV-1 (IIIB) (setting [2]), 11.1 nM in the series on pLai RLuc reporter virus (setting [3]) and 0.294 nM in the series with pLai RLuc reporter virus (setting [4]).

For `O=C(NCc1c(F)cc(F)cc1F)c1cn2c(c(O)c1=O)C(=O)N1CC(F)CC[C@H]2C1` (stereo partly drawn) [Example 178, (7S)-4-fluoro-12-hydroxy-1,11-dioxo-N-(2,4,6-trifluorobenzyl)-1,4,5,6,7,11-hexahydro-3H-2,7-methanopyrido[1,2-a][1,4]diazonine-10-carboxamide], the CC50 at 5 days in series [1] is 16700 nM. The EC50 was found to be 2.14 nM in the series with HIV-1 (IIIB) (setting [2]), 6.56 nM in the series with pLai RLuc reporter virus (setting [3]) and 0.43 nM in the series on pLai RLuc reporter virus (setting [4]).

On to `C[C@]1(F)CCCN2C[C@H]1n1cc(C(=O)NCc3c(F)cc(F)cc3F)c(=O)c(O)c1C2=O` [Example 179, (6S,7R)-6-fluoro-12-hydroxy-6-methyl-1,11-dioxo-N-(2,4,6-trifluorobenzyl)-1,4,5,6,7,11-hexahydro-3H-2,7-methanopyrido[1,2-a][1,4]diazonine-10-carboxamide], for which the CC50 at 5 days in series [1] turned out to be 13100 nM. Also, the EC50 in the series on HIV-1 (IIIB) (setting [2]) was determined as 1.49 nM; in the series on pLai RLuc reporter virus (setting [3]), 0.803 nM; in the series on pLai RLuc reporter virus (setting [4]) it was 0.335 nM.

In the case of `C[C@H]1C=C[C@H](C)N2C[C@H]1n1cc(C(=O)NCc3c(F)cc(F)cc3F)c(=O)c(O)c1C2=O` [Example 183, (3S,6S,7S)-12-hydroxy-3,6-dimethyl-1,11-dioxo-N-(2,4,6-trifluorobenzyl)-1,6,7,11-tetrahydro-3H-2,7-methanopyrido[1,2-a][1,4]diazonine-10-carboxamide], the CC50 at 5 days in series [1] came to 10500 nM. Besides, the EC50 in the series on HIV-1 (IIIB) (setting [2]) is 0.869 nM; in the series on pLai RLuc reporter virus (setting [3]), 5.71 nM; with pLai RLuc reporter virus (setting [4]) it was 0.262 nM.

As to `O=C1c2c(O)c(=O)c(-c3nnc(Cc4ccc(F)cc4F)s3)cn2[C@H]2CCCCN1C2` [Example 185, (7S)-10-(5-(2,4-difluorobenzyl)-1,3,4-thiadiazol-2-yl)-12-hydroxy-4,5,6,7-tetrahydro-3H-2,7-methanopyrido[1,2-a][1,4]diazonine-1,11-dione], the CC50 at 5 days in series [1] worked out at 3550 nM. The EC50 in the series on HIV-1 (IIIB) (setting [2]) is 3.29 nM; in the series on pLai RLuc reporter virus (setting [3]), 4.88 nM; in the series on pLai RLuc reporter virus (setting [4]), 0.984 nM.

For the molecule `C[C@H]1CC[C@H](C)N2C[C@H]1n1cc(C(=O)NCc3c(F)cc(F)cc3F)c(=O)c(O)c1C2=O` [Example 186, (3S,6S,7S)-12-hydroxy-3,6-dimethyl-1,11-dioxo-N-(2,4,6-trifluorobenzyl)-1,4,5,6,7,11-hexahydro-3H-2,7-methanopyrido[1,2-a][1,4]diazonine-10-carboxamide], the CC50 at 5 days in series [1] is 11400 nM. Besides, the EC50 in the series on HIV-1 (IIIB) (setting [2]) was 0.612 nM; in the series with pLai RLuc reporter virus (setting [3]), 60.2 nM; with pLai RLuc reporter virus (setting [4]) it was 0.306 nM.

As for `C[C@H]1CC[C@H](C)N2C[C@H]1n1cc(C(=O)NCc3ccc(F)cc3F)c(=O)c(O)c1C2=O` [Example 187, (3S,6S,7S)—N-(2,4-difluorobenzyl)-12-hydroxy-3,6-dimethyl-1,11-dioxo-1,4,5,6,7,11-hexahydro-3H-2,7-methanopyrido[1,2-a][1,4]diazonine-10-carboxamide], the CC50 at 5 days in series [1] came out at 10800 nM. Also, the figures for the EC50 in the series with HIV-1 (IIIB) (setting [2]), in the series on pLai RLuc reporter virus (setting [3]) and with pLai RLuc reporter virus (setting [4]) were 1.18 nM, 44 nM and 0.383 nM, respectively.

For the molecule `O=C(NCc1ccc(F)cc1F)c1cn2c(c(O)c1=O)C(=O)N1C[C@@H]2CC=C[C@@H]1CF` [Example 188], the CC50 at 5 days in series [1] amounted to 12200 nM. For the same molecule, the EC50 was determined as 1.19 nM with HIV-1 (IIIB) (setting [5]), 3.48 nM with pLai RLuc reporter virus (setting [3]) and 0.421 nM with pLai RLuc reporter virus (setting [4]).

On to `O=C(NCc1ccc(F)cc1F)c1cn2c(c(O)c1=O)C(=O)N1C[C@@H]2CCC[C@@H]1C(F)F` [Example 189, (3R,7S)—N-(2,4-difluorobenzyl)-3-(difluoromethyl)-12-hydroxy-1,11-dioxo-1,4,5,6,7,11-hexahydro-3H-2,7-methanopyrido[1,2-a][1,4]diazonine-10-carboxamide], for which the CC50 at 5 days in series [1] was 12300 nM. The EC50 in the series on HIV-1 (IIIB) (setting [2]) turned out to be 1.56 nM; in the series with pLai RLuc reporter virus (setting [3]) it was 6.06 nM; in the series on pLai RLuc reporter virus (setting [4]), 0.411 nM.

Consider `C[C@H]1CCCN2CC1n1cc(C(=O)NCc3c(F)cc(F)cc3F)c(=O)c(O)c1C2=O` (stereo partly drawn) [Example 190, (6S)-12-hydroxy-6-methyl-1,11-dioxo-N-(2,4,6-trifluorobenzyl)-1,4,5,6,7,11-hexahydro-3H-2,7-methanopyrido[1,2-a][1,4]diazonine-10-carboxamide], for which, in series [1], the CC50 at 5 days is 22800 nM. Further, the EC50 with HIV-1 (IIIB) (setting [5]) was found to be 1.81 nM; in the series with pLai RLuc reporter virus (setting [3]), 14.2 nM; in the series on pLai RLuc reporter virus (setting [4]), 0.434 nM.

With `C[C@@H]1C=C[C@H](CF)N2C[C@H]1n1cc(C(=O)NCc3ccc(F)cc3F)c(=O)c(O)c1C2=O` [Example 192, (3R,6R,7S)—N-(2,4-difluorobenzyl)-3-(fluoromethyl)-12-hydroxy-6-methyl-1,11-dioxo-1,6,7,11-tetrahydro-3H-2,7-methanopyrido[1,2-a][1,4]diazonine-10-carboxamide], the CC50 at 5 days in series [1] came out at 5570 nM. Besides, the EC50 is 0.913 nM with HIV-1 (IIIB) (setting [2]), 6.57 nM with pLai RLuc reporter virus (setting [3]) and 0.252 nM in the series on pLai RLuc reporter virus (setting [4]).

For `C[C@H]1OC[C@H](C)N2C[C@H]1n1cc(C(=O)NCc3c(F)cc(F)cc3F)c(=O)c(O)c1C2=O` [Example 195, (3S,6R,7R)-12-hydroxy-3,6-dimethyl-1,11-dioxo-N-(2,4,6-trifluorobenzyl)-1,3,4,6,7,11-hexahydro-2,7-methanopyrido[1,2-d][1,4,7]oxadiazonine-10-carboxamide], the CC50 at 5 days in series [1] worked out at 16700 nM. For the same molecule, the EC50 was found to be 1.73 nM with HIV-1 (IIIB) (setting [2]), 10.4 nM in the series on pLai RLuc reporter virus (setting [3]) and 0.441 nM with pLai RLuc reporter virus (setting [4]).

For `C[C@@H]1CO[C@H](C)[C@H]2CN1C(=O)c1c(O)c(=O)c(C(=O)NCc3c(F)cc(F)cc3F)cn12` [Example 196, (3R,6R,7R)-12-hydroxy-3,6-dimethyl-1,11-dioxo-N-(2,4,6-trifluorobenzyl)-1,3,4,6,7,11-hexahydro-2,7-methanopyrido[1,2-d][1,4,7]oxadiazonine-10-carboxamide], in series [1], the CC50 at 5 days worked out at 25900 nM. The values for the EC50 in the series with HIV-1 (IIIB) (setting [2]), in the series with pLai RLuc reporter virus (setting [3]) and in the series with pLai RLuc reporter virus (setting [4]) were 2.08 nM, 14.3 nM and 0.469 nM, respectively.

With `C[C@@H]1CO[C@H](C)[C@H]2CN1C(=O)c1c(O)c(=O)c(C(=O)NCc3ccc(F)cc3F)cn12` [Example 197, (3R,6R,7R)—N-(2,4-difluorobenzyl)-12-hydroxy-3,6-dimethyl-1,11-dioxo-1,3,4,6,7,11-hexahydro-2,7-methanopyrido[1,2-d][1,4,7]oxadiazonine-10-carboxamide], the CC50 at 5 days in series [1] is 22400 nM. The EC50 in the series on HIV-1 (IIIB) (setting [2]) turned out to be 1.49 nM; in the series on pLai RLuc reporter virus (setting [3]), 8.35 nM; in the series on pLai RLuc reporter virus (setting [4]), 0.589 nM.
